From ChEMBL document CHEMBL1128975, “The effect of fluorine substitution on the antimalarial activity of tebuquine” (Bioorg Med Chem Lett, 1996) come the findings set out here.

Test [1] relates to Plasmodium falciparum. As to the kind of experiment: Antimalarial activity against Plasmodium falciparum 3D7. Type of test: functional, organism-based.
Test [2] has as its system Plasmodium falciparum. As to the kind of experiment: Antimalarial activity against Plasmodium falciparum K1. Type of test: functional, organism-based.

Broadly, the IC50 is the point on the concentration scale where inhibition reaches its midpoint. Regarding `CC(C)(C)NCc1cc(Nc2ccnc3cc(Cl)ccc23)cc(-c2ccc(Cl)cc2)c1F` [FLOUROTEBUQUINE], the values for the IC50 with Plasmodium falciparum [1] and in the test on Plasmodium falciparum [2] were 58 nM and 74 nM, respectively.
For the compound `CC(C)(C)NCc1cc(Nc2ccnc3cc(Cl)ccc23)cc(-c2ccc(Cl)cc2)c1O` [TEBUQUINE], the IC50 with Plasmodium falciparum [1] turned out to be 18 nM; in the test with Plasmodium falciparum [2], 21 nM.
